This note sets out measurements from article PMC12216184 (Nature Communications, 2025).

Assay [1] deals with N-terminal p53 region from amino acids 1 to 94 (p53^1-94) (human) (UniProt P04637). Nature of the assay: ITC. A general note: In ITC the heat of successive injections is recorded.
Assay [2] addresses p53^TAD2 (residues 37-57), synthetic peptide (human) (UniProt P04637). Description: ITC.
The target in assay [3] is p53^TAD2 phosphorylated at Ser46 (human) (UniProt P04637). Nature of the assay: ITC.
p53^TAD2 phosphorylated at Ser46 (human), sequence (P04637 37-57): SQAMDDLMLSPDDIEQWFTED
In assay [4] the target is p53^TAD2 phosphorylated at Ser46 and Thr55 (human) (UniProt P04637). Description: ITC.
Assay [5] addresses p53^TAD2 phosphorylated at Thr55 (human) (UniProt P04637). Description: ITC.
The subject of assay [6] is p53^1–94. Nature of the assay: 1H,15N HSQC NMR titration of 15N-labeled p53^1–94 (CSP). Format: binding, human. Conditions: 15N-labeled p53^1–94, NMR titration.
Assay [7] relates to endogenous p53 versus p53^ΔTAD2 in RPE-1 cells. Nature of the assay: Pull-down of endogenous p53 versus p53^ΔTAD2 from RPE-1 cells. Type of assay: binding, human. Conditions: biotinylated bait (26 µM FOXO-FH or 125 µM biotinylated peptide CLO4201) on streptavidin agarose, 1 mg/mL RPE-1 lysate, 4 °C, Western blot, triplicates. The source says: Then, cells were selected by blasticidin for 10 days. Cells, which were expressing 3HA-GFP-miniturbo, p53-3HA-GFP-miniturbo-p53 and p53-Δtad2-3HA-GFP-miniturbo were sorted by FACS using GFP (Supplementary Fig. 17).
p53 mutant human TERT-immortalized retinal pigment epithelial 1 (RPE1) cells (RPE1 TP53^−/−; denoted RPE-1 p53KO) cells were kindly provided by Joanna Loizou (CeMM Research Center for Molecular Medicine of the Austrian Academy of Sciences, Vienna, Austria)[48]. […] For the preparation of cell lysates for pull down experiments, cells were grown to confluence and incubated with 10 µM Etoposide (Sigma) for 24 h. Cells were harvested in ice cold PBS pH 7.4 and lysed in lysis buffer (10 mM Tris pH 7.4, 1% IGEPAL®CA-630, 0.1% SDS, 140 mM NaCl, 2 mM MgCl2) supplemented with protease inhibitor cocktail, Benzonase (Merck Millipore) and RNase (molecular biology, Thermo Fisher). Samples were incubated on ice for 20 min, lysed by sonication and centrifuged for 15 min at 24,104 g and 4 °C. Pellets were discarded. Protein amount of lysates was determined by BCA protein assay. Lysates were then diluted to a protein concentration of 1 mg/mL in ice-cold dilution buffer (10 mM Tris pH 7.4, 1% IGEPAL®CA-630, 0.1% SDS, 140 mM NaCl, 2 mM EDTA) supplemented with protease inhibitor cocktail. […]
In general terms: In western blotting, separated proteins are transferred to a membrane and probed.

Assay [8] has as its system p53^1–94. Nature of the assay: NMR secondary chemical shifts and relaxation (15N{1H} NOE, R1, R2) of p53^1–94. Type of assay: binding, human. The conditions noted are these: 300 µM p53^1–94 with 400 µM ligand, pH 7.5. The method, then:
Data analysis von R1 and R1ρ measurements were performed using CcpNMR 2.5[49]. As fitting function, the following equation was used2 Mzt=M0^−Rit+C where Mz(t) is the longitudinal relaxation at the recovery delay time t, M0 is the equilibrium magnetization and Ri is either the longitudinal relaxation rate R1 or R1ρ. The transverse relaxation in the rotating frame R1ρ was then converted to R2 as described previously[50],[51] using the formula3 R1ρ=R1cos^2θ+R2sin^2θ in which θ = arctan(1/Ω) is the tilt angle between the static magnetic field and the effective field in the rotating frame.

Another assay deals with T1, p53^1-94 (Homo sapiens, UniProt P04637).
T1 construct: His6-protein A (TEV cleavage site) (cleaved yes); made in house; host or cells: Escherichia coli BL21-DE3 Star
T1 sequence (P04637 1-94): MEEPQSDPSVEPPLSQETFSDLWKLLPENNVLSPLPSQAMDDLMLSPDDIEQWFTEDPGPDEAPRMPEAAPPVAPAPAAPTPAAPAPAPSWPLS
Description: ITC, p53^1-94. Type of assay: binding.

In another assay the target is T2, p53^TAD2 (Homo sapiens, UniProt P04637).
T2 construct: purchased Peptide Specialty Laboratories GmbH
Nature of the assay: ITC, p53^TAD2. Type of assay: binding.

Another assay has as its target T3, p53^TAD2pS46 (Homo sapiens, UniProt P04637).
T3 construct: purchased Peptide Specialty Laboratories GmbH
Nature of the assay: ITC, p53^TAD2pS46. Format: binding.

Another assay addresses T4, p53^TAD2pT55 (Homo sapiens, UniProt P04637).
T4 construct: purchased Peptide Specialty Laboratories GmbH
Nature of the assay: ITC, p53^TAD2pT55. Format: binding.

In the next assay the target is T5, p53^TAD2pS46T55 (Homo sapiens, UniProt P04637).
T5 construct: purchased Peptide Specialty Laboratories GmbH
Nature of the assay: ITC, p53^TAD2pS46T55. Type of assay: binding.

The subject of a further assay is FOXO4^CR3. Nature of the assay: 1H,15N HSQC NMR titration of 15N-labeled FOXO4^CR3 (CSP). Format: binding, human. The conditions noted are these: 15N-labeled FOXO4^CR3, NMR titration with p53^DBD.
Another assay has as its system FOXO4^FH. Nature of the assay: 1H,15N HSQC NMR titration of 15N-labeled FOXO4^FH (CSP). Format: binding, human. Conditions: one equivalent of phosphopeptide versus p53^TAD2, 15N-labeled FOXO4^FH.

Non-standard residues stand in square brackets, D forms with d. No end group written: not given here.

Broadly, the stoichiometry N is the number of molecules, sites or subunits per partner or assembly. A word on the Kd: it is the concentration at which binding is half-saturated. Low readings indicate tighter binding, high ones weaker binding.

N-terminal p53 region from amino acids 1 to 94 (p53^1-94) (human), sequence (P04637 1-94): as above

For the substance “FOXO4-DRI (D-retro-inverso cell-penetrating peptide derived from the FOXO4 FH domain, fused to HIV-TAT)”, the dH is 5.9 kcal/mol in assay [1]; 0.2 kcal/mol in [2]; -1.8 kcal/mol in assay [3]; -4.5 kcal/mol in assay [4]; -4.7 kcal/mol in [5]. Further, the stoichiometry N in assay [1] was found to be 0.9; in [2] it was 0.9; in assay [3], 0.71; in [4], 1.11; in assay [5] it was 0.74.

Regarding “FOXO4^FH: FOXO4 forkhead domain fragment, amino acids 86–208”, the “most affected residues of p53 (CSP)” value with p53^1–94 [6] is recorded as “region from amino acids 45 to 57”. Moreover, the “pull-down of endogenous p53 versus p53^ΔTAD2” value in assay [7] was “higher amounts of endogenous p53 versus p53^ΔTAD2”. In addition, in the assay on p53^1–94 [8], the “15N{1H} NOE change” value is listed as “increased substantially in the presence of FOXO4^FH” and the “R1 relaxation rate change” value is reported as “highly similar”.

Take “[dL][dT][dL][dR][dK][dE][dP][dA][dS][dE][dI][dA][dQ][dS][dI][dL][dE][dA][dY][dS][dQ][dN]G[dW][dA][dN][dR][dR][dS]GG[dK][dR][dP][dP][dP][dR][dR][dR][dQ][dR][dR][dK][dK][dR]G [FOXO4-DRI]”: the Kd at p53^1-94 came to 0.4 ± 0.3 µM; at p53^TAD2 it was 18.5 ± 3.6 µM; on p53^TAD2pS46 it was 10.5 ± 1.5 µM; on p53^TAD2pT55, 5.8 ± 1.2 µM; at p53^TAD2pS46T55, 4.9 ± 0.3 µM.

Regarding “p53^DBD: human p53 DNA-binding domain fragment, amino acids 94–312”, in the assay on FOXO4^CR3, the “most affected residues of FOXO4^CR3 (CSP)” value is “between FOXO4 amino acids 473 and 491”.

On to “p53^TAD2pS46: p53^TAD2 peptide phosphorylated at Ser46”, for which the “effect of phosphorylation on CSPs of FOXO4^FH” value in the assay on FOXO4^FH is “stronger CSPs”.

With “p53^TAD2pT55: p53^TAD2 peptide phosphorylated at Thr55”, the “effect of phosphorylation on CSPs of FOXO4^FH” value with FOXO4^FH was “stronger CSPs”.
